This assay deals with T1, indoleamine 2, 3-dioxygenase (IDO1) (Homo sapiens, UniProt P14902).
T1 construct: human peripheral blood mononuclear cells (PBMC) (PB003F; host or cells: human PBMC stimulated with IFN-gamma and LPS
T1 sequence (P14902 whole entry): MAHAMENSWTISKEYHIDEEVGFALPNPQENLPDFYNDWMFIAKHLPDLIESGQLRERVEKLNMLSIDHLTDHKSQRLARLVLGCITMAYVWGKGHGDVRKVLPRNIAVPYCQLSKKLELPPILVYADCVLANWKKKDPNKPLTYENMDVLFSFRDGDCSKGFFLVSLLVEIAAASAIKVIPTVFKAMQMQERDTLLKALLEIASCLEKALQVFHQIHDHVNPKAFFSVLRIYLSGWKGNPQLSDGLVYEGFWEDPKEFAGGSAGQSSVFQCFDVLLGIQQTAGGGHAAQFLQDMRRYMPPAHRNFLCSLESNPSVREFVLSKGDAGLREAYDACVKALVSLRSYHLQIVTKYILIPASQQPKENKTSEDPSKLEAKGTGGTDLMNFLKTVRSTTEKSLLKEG
In words: PBMC IDO1 assay (kynurenine detection via mass spectrometry). The assay is classed as cell-based. To be noted: human PBMC stimulated with IFN-γ and LPS, 2 days, kynurenine by mass spectrometry; read-out: IDO1 PBMC pIC50 (converted). In outline:
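Human PBMCs (50,000/well) stimulated with IFN-γ 100 ng/ml and LPS 50 ng/ml were exposed to 11-point 3-fold compound dilutions for 2 days at 37 °C. Supernatant kynurenine was quantified by RapidFire MS relative to an internal standard; parallel CellTiter-Glo ATP luminescence measured cytotoxicity, with four-parameter curve fitting.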
On to `CC(C)(C)OC(=O)N1CCC(CC(NC(=O)c2ccc(F)c(Cl)c2)c2ccccc2)CC1` (stereo not drawn) [Example 203, tert-butyl 4-(2-(3-chloro-4-fluorobenzamido)-2-phenylethyl)piperidine-1-carboxylate], for which the IC50 was 316 nM. For the molecule `Cc1ccc(C(=O)NC(CC2CCN(C(=O)OC(C)(C)C)CC2)c2ccccc2)o1` (stereo not drawn) [Example 204, tert-butyl 4-(2-(5-methylfuran-2-carboxamido)-2-phenylethyl)piperidine-1-carboxylate], the IC50 was 316 nM. For the molecule `CC(C)(C)OC(=O)N1CCC(CC(NC(=O)c2ccc(Cl)c(Cl)c2)c2ccccc2)CC1` (stereo not drawn) [Example 205, tert-butyl 4-(2-(3,4-dichlorobenzamido)-2-phenylethyl)piperidine-1-carboxylate], the IC50 was 316 nM. In the case of `COC(=O)N1CCC(C[C@@H](NC(=O)c2ccc(Cl)s2)C2CC2)CC1` [Example 206, (R)-methyl 4-(2-(5-chlorothiophene-2-carboxamido)-2-cyclopropylethyl)piperidine-1-carboxylate], the IC50 was 316 nM.

In the case of `CC(C)(C)OC(=O)N1CCC(CC(NC(=O)c2ccc(F)cc2)c2cccnc2)CC1` (stereo not drawn) [Example 207, tert-butyl 4-(2-(4-fluorobenzamido)-2-(pyridin-3-yl)ethyl)piperidine-1-carboxylate], the IC50 is 398 nM. For the molecule `CC(C)(C)OC(=O)N1CCC(CC(NC(=O)c2ccc(F)cc2)c2ccncc2)CC1` (stereo not drawn) [Example 208, tert-butyl 4-(2-(4-fluorobenzamido)-2-(pyridin-4-yl)ethyl)piperidine-1-carboxylate], the IC50 is 398 nM. As to `CC(C)(C)OC(=O)N1CCC(CC(NC(=O)C2CCCCCC2)c2ccccc2)CC1` (stereo not drawn) [Example 209, tert-butyl 4-(2-(cycloheptanecarboxamido)-2-phenylethyl)piperidine-1-carboxylate], the IC50 is 398 nM. For the molecule `CC(C)(C)CC(=O)NC(CC1CCN(C(=O)OC(C)(C)C)CC1)c1ccccc1` (stereo not drawn) [Example 210, tert-butyl 4-(2-(3,3-dimethylbutanamido)-2-phenylethyl)piperidine-1-carboxylate], the IC50 was 398 nM. Take `CC(C)(C)OC(=O)N1CCC(CC(NC(=O)c2cc(F)ccc2F)c2ccccc2)CC1` (stereo not drawn) [Example 211, tert-butyl 4-(2-(2,5-difluorobenzamido)-2-phenylethyl)piperidine-1-carboxylate]: the IC50 was 398 nM.

Turning to `CC(C)c1ccc(C(=O)NC(CC2CCN(C(=O)OC(C)(C)C)CC2)c2ccccc2)cc1` (stereo not drawn) [Example 212, tert-butyl 4-(2-(4-isopropylbenzamido)-2-phenylethyl)piperidine-1-carboxylate], the IC50 is 398 nM. With `Cc1cc(C(=O)NC(CC2CCN(C(=O)OC(C)(C)C)CC2)c2ccccc2)ccc1F` (stereo not drawn) [Example 213, tert-butyl 4-(2-(4-fluoro-3-methylbenzamido)-2-phenylethyl)piperidine-1-carboxylate] the figure was 398 nM. For `CC(C)(C)OC(=O)N1CCC(C[C@@H](NC(=O)c2ccc(Cl)s2)C2CC2)CC1` [Example 214, (R)-tert-butyl 4-(2-(5-chlorothiophene-2-carboxamido)-2-cyclopropylethyl)piperidine-1-carboxylate], the IC50 was 398 nM. With `O=C(NC(CC1CCN(S(=O)(=O)c2ccccc2)CC1)c1ccccc1)c1ccc(Cl)cc1` (stereo not drawn) [Example 215, 4-chloro-N-(1-phenyl-2-(1-(phenylsulfonyl)piperidin-4-yl)ethyl)benzamide] the figure was 398 nM; with `COc1cccc(C(=O)NC(CC2CCN(C(=O)OC(C)(C)C)CC2)c2ccccc2)c1` (stereo not drawn) [Example 216, tert-butyl 4-(2-(3-methoxybenzamido)-2-phenylethyl)piperidine-1-carboxylate], 501 nM. As for `Cc1ccc(C(=O)NC(CC2CCN(C(=O)OC(C)(C)C)CC2)c2ccccc2)cn1` (stereo not drawn) [Example 217, tert-butyl 4-(2-(6-methylnicotinamido)-2-phenylethyl)piperidine-1-carboxylate], the IC50 was 501 nM.

Source of the values: patent US20210078988A1, “MODULATORS OF INDOLEAMINE 2,3-DIOXYGENASE” (GLAXOSMITHKLINE INTELLECTUAL PROPERTY DEVELOPMENT LIMITED, priority 2017, published 2021).
